Experimental findings from PubChem BioAssay (NCI) are described below.

SMILES strings stand for the structures.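 Method: 48-hour compound exposure of cells in 96-well plates, five concentrations, linear interpolation of endpoints. The concentration for full growth arrest is given as TGI.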 Some results are limits rather than exact numbers.

Among the test systems are A498 renal; HOP-62 NSCLC; LXFL 529 NSCLC; M19-MEL melanoma; MALME-3M melanoma; SF-268 CNS; SK-MEL-28 melanoma; UO-31 renal.
What all share (assay): NCI-60 cell line screen, 48 h

In the case of `CC(=O)OC[C@@H](COC(=O)/C=C/c1ccc(O)cc1)OC1OC(CO)C(O)C(O)C1O` (stereo not given in full), the TGI in the assay on A498 renal, in the assay on HOP-62 NSCLC, in the assay on LXFL 529 NSCLC, with M19-MEL melanoma, in the assay on MALME-3M melanoma and with SF-268 CNS was above 100 µM in each case. Also, the TGI in the assay with SK-MEL-28 melanoma and with UO-31 renal was above 100 µM throughout.
For the molecule `O=c1c(Br)cc2nc3ccccc3sc-2c1Br`, the TGI is above 100 µM in the assay with A498 renal; above 100 µM in the assay with HOP-62 NSCLC; above 100 µM with LXFL 529 NSCLC; 32.4 µM with M19-MEL melanoma; above 100 µM with MALME-3M melanoma; above 100 µM with SF-268 CNS. The TGI with SK-MEL-28 melanoma and in the assay with UO-31 renal was above 100 µM throughout.
As to `C/C(CC(=O)Nc1ccc(C)c(C)c1)=N\NC(N)=O`, the TGI in the assay with A498 renal, with HOP-62 NSCLC, with LXFL 529 NSCLC, with M19-MEL melanoma, in the assay on MALME-3M melanoma and in the assay with SF-268 CNS was above 100 µM in each case. In addition, the TGI in the assay with SK-MEL-28 melanoma and in the assay on UO-31 renal was above 100 µM throughout.
`Cc1cccc(C)c1NC(=O)C1C(=O)N(c2c(C)cccc2C)C(=O)/C1=N\N` (stereo not given): the TGI with A498 renal, in the assay with HOP-62 NSCLC, with LXFL 529 NSCLC, in the assay with M19-MEL melanoma, with MALME-3M melanoma and in the assay with SF-268 CNS was above 100 µM each time. Besides, the TGI in the assay on SK-MEL-28 melanoma and in the assay on UO-31 renal was above 100 µM throughout.
As to `C[C@]12CC/C(=N\O)C=C1CC[C@@H]1C2CC[C@@]2(C)C1CC[C@@H]2OC1CCCCO1` (stereo not given in full), the TGI in the assay on A498 renal was above 100 µM; with HOP-62 NSCLC, above 100 µM; in the assay on LXFL 529 NSCLC it was 31.8 µM; in the assay with M19-MEL melanoma it was 35.1 µM; with MALME-3M melanoma, 41.4 µM; in the assay on SF-268 CNS it was 55.2 µM. For the same molecule, the results for the TGI in the assay with SK-MEL-28 melanoma and with UO-31 renal were 42.4 µM and 43.7 µM, respectively.
Turning to `CC1=C(O)C(=O)C2C(=O)C1C1Cc3ccccc3C21` (stereo not given), the TGI in the assay with A498 renal, in the assay with HOP-62 NSCLC, in the assay on LXFL 529 NSCLC, in the assay on M19-MEL melanoma, with MALME-3M melanoma and in the assay with SF-268 CNS was above 100 µM in each case. For the same molecule, the TGI in the assay on SK-MEL-28 melanoma and in the assay on UO-31 renal was above 100 µM in each case.
Regarding `CN1C(=O)C2C3C=C4c5ccccc5N(c5ccccc5)C4(C2C1=O)[C@H]1C(=O)N(C)C(=O)[C@@H]31` (stereo not given in full), the TGI in the assay on A498 renal, in the assay with HOP-62 NSCLC, with LXFL 529 NSCLC, in the assay with M19-MEL melanoma, in the assay on MALME-3M melanoma and in the assay on SF-268 CNS was above 100 µM in each case. Moreover, the TGI in the assay on SK-MEL-28 melanoma and in the assay on UO-31 renal was above 100 µM in each case.
As to `O=C(O)CCC(N=Cc1nc(-c2ccccc2)oc1O)C(=O)O` (stereo not given), the TGI with A498 renal, with HOP-62 NSCLC, in the assay on LXFL 529 NSCLC, in the assay on M19-MEL melanoma, in the assay with MALME-3M melanoma and with SF-268 CNS was above 100 µM each time. The TGI in the assay with SK-MEL-28 melanoma and with UO-31 renal was above 100 µM each time.
In the case of `COc1ccc(/C(Cl)=C(\C=N/O)c2ccc(OC)c(OC)c2)cc1OC`, the TGI in the assay on A498 renal, in the assay on HOP-62 NSCLC, with LXFL 529 NSCLC, in the assay with M19-MEL melanoma, in the assay with MALME-3M melanoma and in the assay with SF-268 CNS was above 100 µM in each case. Besides, the TGI in the assay on SK-MEL-28 melanoma and in the assay on UO-31 renal was above 100 µM throughout.
On to `Cn1cnc([N+](=O)[O-])c1Sc1nccn1-c1cccc2ccccc12`, for which the TGI with A498 renal is above 100 µM; in the assay with HOP-62 NSCLC it was above 100 µM; with LXFL 529 NSCLC, 99.4 µM; with M19-MEL melanoma, 98.9 µM; in the assay with MALME-3M melanoma, 42.2 µM; in the assay on SF-268 CNS it was 84.2 µM. In addition, the TGI in the assay on SK-MEL-28 melanoma was 67.8 µM; with UO-31 renal, above 100 µM.
